Test results: the supplement of paper PMC10307832

Assays:
Assay in all cases: relative viability (nuclei count vs DMSO), 5 days (fraction); higher = more cells survive
17-AAG + Pemetrexed = compound: C=CCNC1=C2C[C@@H](C)C[C@H](OC)[C@H](O)[C@@H](C)/C=C(\C)[C@H](OC(N)=O)[C@@H](OC)/C=C\C=C(/C)C(=O)NC(=CC1=O)C2=O [17-AAG] + Nc1nc2[nH]cc(CCc3ccc(C(=O)N[C@@H](CCC(=O)O)C(=O)O)cc3)c2c(=O)[nH]1 [Pemetrexed] (partner 0.2 µM)
How it was run: (§1)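 A single step with final 0.05% Triton X-100, 1% formaldehyde and 1 ug/ml Hoechst fixed the cells and stained nuclei 5 days after treatment. Lung cancer cell lines in 1536-well plates had been treated by pin tool the day after seeding with one drug alone or a fixed anchor-drug dose plus five library-drug doses (not always all listed) in √10 steps, and nuclei were counted on 4× images. Relative viability is the ratio of nuclei in treated wells to nuclei in vehicle wells, taken as the median of duplicate plates.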

17-AAG + OSI-027 = compound: C=CCNC1=C2C[C@@H](C)C[C@H](OC)[C@H](O)[C@@H](C)/C=C(\C)[C@H](OC(N)=O)[C@@H](OC)/C=C\C=C(/C)C(=O)NC(=CC1=O)C2=O [17-AAG] + COc1cccc2cc(-c3nc([C@H]4CC[C@H](C(=O)O)CC4)n4ncnc(N)c34)[nH]c12 [OSI-027] (partner 0.5 µM)
How it was run: as §1

17-AAG + Foretinib = compound: C=CCNC1=C2C[C@@H](C)C[C@H](OC)[C@H](O)[C@@H](C)/C=C(\C)[C@H](OC(N)=O)[C@@H](OC)/C=C\C=C(/C)C(=O)NC(=CC1=O)C2=O [17-AAG] + COc1cc2c(Oc3ccc(NC(=O)C4(C(=O)Nc5ccc(F)cc5)CC4)cc3F)ccnc2cc1OCCCN1CCOCC1 [Foretinib] (partner 0.25 µM)
How it was run: as §1

17-AAG + AZD7762 = compound: C=CCNC1=C2C[C@@H](C)C[C@H](OC)[C@H](O)[C@@H](C)/C=C(\C)[C@H](OC(N)=O)[C@@H](OC)/C=C\C=C(/C)C(=O)NC(=CC1=O)C2=O [17-AAG] + NC(=O)Nc1cc(-c2cccc(F)c2)sc1C(=O)N[C@H]1CCCNC1 [AZD7762] (partner 0.2 µM)
How it was run: as §1

Cell Line | relative viability (17-AAG + Pemetrexed; first compound 0.00128 µM) | relative viability (17-AAG + Pemetrexed; first compound 0.004048 µM) | relative viability (17-AAG + Pemetrexed; first compound 0.0128 µM) | relative viability (17-AAG + Pemetrexed; first compound 0.04048 µM) | relative viability (17-AAG + Pemetrexed; first compound 0.128 µM) | relative viability (17-AAG + OSI-027; first compound 0.00128 µM) | relative viability (17-AAG + OSI-027; first compound 0.004048 µM) | relative viability (17-AAG + OSI-027; first compound 0.0128 µM) | relative viability (17-AAG + OSI-027; first compound 0.04048 µM) | relative viability (17-AAG + OSI-027; first compound 0.128 µM) | relative viability (17-AAG + Foretinib; first compound 0.00128 µM) | relative viability (17-AAG + Foretinib; first compound 0.004048 µM) | relative viability (17-AAG + Foretinib; first compound 0.0128 µM) | relative viability (17-AAG + Foretinib; first compound 0.04048 µM) | relative viability (17-AAG + Foretinib; first compound 0.128 µM) | relative viability (17-AAG + AZD7762; first compound 0.00128 µM) | relative viability (17-AAG + AZD7762; first compound 0.004048 µM) | relative viability (17-AAG + AZD7762; first compound 0.0128 µM) | relative viability (17-AAG + AZD7762; first compound 0.04048 µM) | relative viability (17-AAG + AZD7762; first compound 0.128 µM)
COR-L 105 | 1.17 | 1.32 | 1.02 | 0.968 | 0.687 | 0.719 | 0.829 | 0.704 | 0.351 | 0.306 | 0.965 | 1 | 0.805 | 0.715 | 0.31 | – | – | – | – | –
LK-2 | 0.266 | 0.292 | 0.211 | 0.101 | 0.0875 | 0.26 | 0.225 | 0.151 | 0.138 | 0.144 | 1.09 | 1.11 | 1.21 | 1.26 | 0.25 | 0.481 | 0.522 | 0.149 | 0.115 | 0.0799
NCI-H838 | 0.258 | 0.313 | 0.208 | 0.133 | 0.154 | 0.408 | 0.369 | 0.246 | 0.147 | 0.124 | 0.965 | 0.977 | 0.667 | 0.178 | 0.158 | 0.978 | 0.849 | 0.669 | 0.633 | 0.604
SK-LU-1 | 0.999 | 0.63 | 0.28 | 0.27 | 0.19 | 0.342 | 0.17 | 0.102 | 0.0747 | 0.0783 | 0.863 | 0.566 | 0.167 | 0.143 | 0.127 | – | – | – | – | –
NCI-H2023 | 0.268 | 0.137 | 0.0942 | 0.0647 | 0.0873 | 0.328 | 0.221 | 0.0577 | 0.0589 | 0.0633 | 0.93 | 0.672 | 0.297 | 0.0761 | 0.0537 | – | – | – | – | –
NCI-H441 | 0.255 | 0.28 | 0.284 | 0.106 | 0.125 | 0.581 | 0.429 | 0.203 | 0.19 | 0.137 | 0.903 | 0.862 | 0.39 | 0.211 | 0.0805 | 1.07 | 1.02 | 0.669 | 0.118 | 0.108
NCI-H1666 | 0.921 | 0.877 | 0.908 | 0.515 | 0.517 | 0.875 | 0.782 | 0.52 | 0.395 | 0.335 | 1.04 | 0.963 | 0.587 | 0.383 | 0.341 | 0.725 | 0.902 | 0.531 | 0.35 | 0.292
NCI-H1648 | – | 0.904 | 0.649 | 0.29 | 0.288 | 0.274 | – | 0.345 | 0.261 | 0.259 | – | – | – | – | – | – | 0.854 | 0.558 | 0.626 | 0.325
NCI-H2087 | 0.606 | 0.618 | 0.354 | 0.163 | 0.128 | 0.483 | 0.325 | 0.124 | 0.15 | 0.0762 | 1.08 | 0.855 | 0.183 | 0.137 | 0.113 | 1.28 | 1.3 | 0.471 | 0.154 | 0.116
LU99A | 0.175 | 0.184 | 0.165 | 0.188 | 0.111 | 0.333 | 0.332 | 0.282 | 0.217 | 0.141 | 0.931 | 0.783 | 0.719 | 0.222 | 0.213 | 0.372 | 0.284 | 0.115 | 0.179 | 0.074
HCC-366 | 0.207 | 0.311 | 0.127 | 0.0359 | 0.0398 | 0.942 | 0.964 | 0.117 | 0.0472 | 0.037 | 0.958 | 0.968 | 0.89 | 0.126 | 0.0491 | 0.281 | 0.402 | 0.045 | 0.0325 | 0.0323
EKVX | 0.475 | 0.381 | 0.491 | 0.17 | 0.131 | 0.77 | 0.649 | 0.746 | 0.177 | 0.152 | 0.895 | 0.805 | 0.175 | 0.192 | 0.131 | 0.817 | 0.726 | 0.669 | 0.435 | 0.162
NCI-H522 | 0.974 | 1.01 | 0.673 | 0.764 | 0.372 | 0.663 | 0.685 | 0.655 | 0.542 | 0.552 | – | – | – | – | – | 0.845 | 0.857 | 0.569 | 0.51 | 0.393
NCI-H1755 | 0.47 | 0.404 | 0.407 | 0.355 | 0.214 | 0.773 | 0.69 | 0.602 | 0.197 | 0.114 | 0.92 | 0.898 | 0.888 | 0.302 | 0.309 | 0.47 | 0.468 | 0.362 | 0.234 | 0.195
NCI-H650 | 1.03 | 0.895 | 0.91 | 0.657 | 0.236 | 0.502 | 0.602 | 0.494 | 0.426 | 0.258 | 1.04 | 1.02 | 1 | 0.934 | 0.249 | 0.882 | 1.11 | 0.63 | 0.324 | 0.263
LC-2-ad | 0.298 | 0.257 | 0.248 | 0.219 | 0.209 | 0.699 | 0.542 | 0.426 | 0.301 | 0.241 | 0.891 | 0.898 | 0.515 | 0.343 | 0.261 | 0.841 | 0.835 | 0.714 | 0.297 | 0.161
